Test results from PMC5218480 (PLoS ONE, 2017).

System: MV-4-11 cells
Experiment: Gene expression microarray analysis (Affymetrix PrimeView) and GSEA
Type: cell-based, human
Parameters: RFU PODN (11730768_x_at) / Fold change /veh PODN (11730768_x_at) / RFU LINC00158 (11744669_a_at) / Fold change /veh LINC00158 (11744669_a_at) / RFU DUSP10 (11751237_a_at) / Fold change /veh DUSP10 (11751237_a_at) / RFU ID3 (11757404_x_at) / Fold change /veh ID3 (11757404_x_at) / RFU PLEKHG5 (11737974_s_at) / Fold change /veh PLEKHG5 (11737974_s_at) / RFU LRRC4B (11730491_at) / Fold change /veh LRRC4B (11730491_at) / RFU GIMAP4 (11747438_a_at) / Fold change /veh GIMAP4 (11747438_a_at) / RFU KRT8 (11758183_x_at) / Fold change /veh KRT8 (11758183_x_at) / RFU CNN1 (11734310_a_at) / Fold change /veh CNN1 (11734310_a_at) / RFU VPS37D (11726825_at) / Fold change /veh VPS37D (11726825_at) / RFU C10orf10 (11716522_x_at) / Fold change /veh C10orf10 (11716522_x_at) / RFU KIR2DL2 /// KIR2DL4 /// KIR2DL5A /// KIR2DL5B /// KIR2DS1 /// KIR2DS2 /// KIR2DS3 /// KIR2DS4 /// KIR3DL3 /// KIR3DL3 /// KIR3DS1 (11738374_at) / Fold change /veh KIR2DL2 /// KIR2DL4 /// KIR2DL5A /// KIR2DL5B /// KIR2DS1 /// KIR2DS2 /// KIR2DS3 /// KIR2DS4 /// KIR3DL3 /// KIR3DL3 /// KIR3DS1 (11738374_at) / RFU C1QL1 (11718748_at) / Fold change /veh C1QL1 (11718748_at) / RFU TMPRSS4 (11747572_a_at) / Fold change /veh TMPRSS4 (11747572_a_at) / RFU HAMP (11756126_x_at) / Fold change /veh HAMP (11756126_x_at) / RFU RNFT2 (11725882_a_at) / Fold change /veh RNFT2 (11725882_a_at) / RFU NR4A2 (11747474_a_at) / Fold change /veh NR4A2 (11747474_a_at) / RFU ABCC12 (11746883_a_at) / Fold change /veh ABCC12 (11746883_a_at) / RFU TMEM136 (11760407_x_at) / Fold change /veh TMEM136 (11760407_x_at) / RFU CLDN22 /// WWC2 (11732394_at) / Fold change /veh CLDN22 /// WWC2 (11732394_at) / RFU HLA-DPB1 (11760878_x_at) / Fold change /veh HLA-DPB1 (11760878_x_at) / RFU SPINT1 (11716480_a_at) / Fold change /veh SPINT1 (11716480_a_at) / RFU GAP43 (11754022_s_at) / Fold change /veh GAP43 (11754022_s_at) / RFU A4GNT (11735810_at) / Fold change /veh A4GNT (11735810_at) / RFU PRB3 (11715151_x_at) / Fold change /veh PRB3 (11715151_x_at) / RFU TUBB4B (11761932_at) / Fold change /veh TUBB4B (11761932_at) / RFU CAPN14 (11732068_a_at) / Fold change /veh CAPN14 (11732068_a_at) / RFU TMCC2 (11721928_a_at) / Fold change /veh TMCC2 (11721928_a_at) / RFU IRGQ (11745062_a_at) / Fold change /veh IRGQ (11745062_a_at) / RFU FAM174B (11720279_a_at) / Fold change /veh FAM174B (11720279_a_at) / RFU TMPRSS4 (11748680_a_at) / Fold change /veh TMPRSS4 (11748680_a_at) / RFU FAM212B (11763350_a_at) / Fold change /veh FAM212B (11763350_a_at) / RFU PLEKHG5 (11743358_a_at) / Fold change /veh PLEKHG5 (11743358_a_at) / RFU ZSCAN30 (11745921_a_at) / Fold change /veh ZSCAN30 (11745921_a_at) / RFU CMKLR1 (11741424_a_at) / Fold change /veh CMKLR1 (11741424_a_at) / RFU LOC101060620 /// MAPK8IP1 (11723275_at) / Fold change /veh LOC101060620 /// MAPK8IP1 (11723275_at) / RFU SPTSSB (11747773_x_at) / Fold change /veh SPTSSB (11747773_x_at) / RFU PRSS12 (11739890_at) / Fold change /veh PRSS12 (11739890_at) / RFU BIN1 (11741810_x_at) / Fold change /veh BIN1 (11741810_x_at) / RFU WNT11 (11732464_a_at) / Fold change /veh WNT11 (11732464_a_at) / RFU C10orf10 (11716521_a_at) / Fold change /veh C10orf10 (11716521_a_at) / RFU C5orf56 (11738089_at) / Fold change /veh C5orf56 (11738089_at) / RFU CYB561 (11721691_x_at) / Fold change /veh CYB561 (11721691_x_at) / RFU ANKRD19P (11752326_a_at) / Fold change /veh ANKRD19P (11752326_a_at) / RFU OR2T12 /// OR2T33 /// OR2T8 (11738714_s_at) / Fold change /veh OR2T12 /// OR2T33 /// OR2T8 (11738714_s_at) / RFU VCAN (11748164_a_at) / Fold change /veh VCAN (11748164_a_at) / RFU JSRP1 (11732532_at) / Fold change /veh JSRP1 (11732532_at) / RFU KRTAP10-11 (11738290_x_at) / Fold change /veh KRTAP10-11 (11738290_x_at) / RFU MYO3A (11730013_a_at) / Fold change /veh MYO3A (11730013_a_at) / RFU EBF3 (11725865_a_at) / Fold change /veh EBF3 (11725865_a_at) / RFU CAMK2N1 (11719241_x_at) / Fold change /veh CAMK2N1 (11719241_x_at) / RFU C5orf56 (11738088_a_at) / Fold change /veh C5orf56 (11738088_a_at) / RFU OLFML3 (11715873_a_at) / Fold change /veh OLFML3 (11715873_a_at) / RFU LOC100653217 /// NTM (11731650_a_at) / Fold change /veh LOC100653217 /// NTM (11731650_a_at) / RFU MAPK11 (11762145_a_at) / Fold change /veh MAPK11 (11762145_a_at) / RFU FIZ1 (11724087_x_at) / Fold change /veh FIZ1 (11724087_x_at) / RFU OASL (11726364_x_at) / Fold change /veh OASL (11726364_x_at) / RFU SOX15 (11748057_x_at) / Fold change /veh SOX15 (11748057_x_at) / RFU CD79A (11719716_a_at) / Fold change /veh CD79A (11719716_a_at) / RFU HIST1H1D (11736915_at) / Fold change /veh HIST1H1D (11736915_at) / RFU CASKIN2 (11723855_a_at) / Fold change /veh CASKIN2 (11723855_a_at) / RFU LOC730098 (11760151_x_at) / Fold change /veh LOC730098 (11760151_x_at) / RFU OR4N2 (11742367_at) / Fold change /veh OR4N2 (11742367_at) / RFU PRRT2 (11749266_a_at) / Fold change /veh PRRT2 (11749266_a_at) / RFU SNX32 (11753110_a_at) / Fold change /veh SNX32 (11753110_a_at) / RFU CDHR5 (11726645_a_at) / Fold change /veh CDHR5 (11726645_a_at) / RFU RCAN1 (11760418_a_at) / Fold change /veh RCAN1 (11760418_a_at) / RFU FAM167A (11723789_a_at) / Fold change /veh FAM167A (11723789_a_at) / RFU FAM26E (11764081_at) / Fold change /veh FAM26E (11764081_at) / RFU ISYNA1 (11749810_s_at) / Fold change /veh ISYNA1 (11749810_s_at) / RFU ACY1 (11761880_at) / Fold change /veh ACY1 (11761880_at) / RFU 11764098_at / Fold change /veh 11764098_at / RFU SAMD14 (11745864_x_at) / Fold change /veh SAMD14 (11745864_x_at) / RFU NPB (11741838_a_at) / Fold change /veh NPB (11741838_a_at) / RFU TMPRSS6 (11731388_a_at) / Fold change /veh TMPRSS6 (11731388_a_at) / RFU KRTAP10-2 (11738614_at) / Fold change /veh KRTAP10-2 (11738614_at) / RFU ARHGAP8 /// PRR5-ARHGAP8 (11727945_x_at) / Fold change /veh ARHGAP8 /// PRR5-ARHGAP8 (11727945_x_at) / RFU KRTAP5-7 /// NADSYN1 (11734609_at) / Fold change /veh KRTAP5-7 /// NADSYN1 (11734609_at) / RFU RASL12 (11751679_a_at) / Fold change /veh RASL12 (11751679_a_at) / RFU CDKN2B (11736163_a_at) / Fold change /veh CDKN2B (11736163_a_at) / RFU PRF1 (11729649_at) / Fold change /veh PRF1 (11729649_at) / RFU, ZNF638 /// ZNF638-IT1 / Fold change vs veh, ZNF638 /// ZNF638-IT1 / RFU, PANK3 / Fold change vs veh, PANK3 / RFU, SH3YL1 / Fold change vs veh, SH3YL1 / RFU, ZEB2 / Fold change vs veh, ZEB2 / RFU, NRIP1 / Fold change vs veh, NRIP1 / RFU, PTTG1IP / Fold change vs veh, PTTG1IP / RFU, CAPN2 / Fold change vs veh, CAPN2 / RFU, MED14 / Fold change vs veh, MED14 / RFU, SNORA58 / Fold change vs veh, SNORA58 / RFU, C1orf63 / Fold change vs veh, C1orf63 / RFU, LRRFIP1 / Fold change vs veh, LRRFIP1 / RFU, NDUFAF7 / Fold change vs veh, NDUFAF7 / RFU, SLC12A2 / Fold change vs veh, SLC12A2 / RFU, IBTK / Fold change vs veh, IBTK / RFU, ESF1 / Fold change vs veh, ESF1 / Fold change vs veh, TMEM50B / RFU, TAOK1 / Fold change vs veh, TAOK1 / RFU, ACBD3 / Fold change vs veh, ACBD3 / RFU, TMA16 / Fold change vs veh, TMA16 / RFU, RWDD3 / Fold change vs veh, RWDD3 / RFU, BCAT1 / Fold change vs veh, BCAT1 / RFU, EDEM3 / Fold change vs veh, EDEM3 / RFU, TMEM33 / Fold change vs veh, TMEM33 / RFU, WDR75 / Fold change vs veh, WDR75 / RFU, AHCTF1 / Fold change vs veh, AHCTF1 / RFU, TFRC / Fold change vs veh, TFRC / RFU, ZDHHC17 / Fold change vs veh, ZDHHC17 / RFU, NOM1 / Fold change vs veh, NOM1 / RFU, ARL8B / Fold change vs veh, ARL8B / RFU, ZBTB11 / Fold change vs veh, ZBTB11 / RFU, TAMM41 / Fold change vs veh, TAMM41 / RFU, KIAA1704 /// LOC100996395 / Fold change vs veh, KIAA1704 /// LOC100996395 / RFU, ING1 / Fold change vs veh, ING1 / RFU, TRMT61B / Fold change vs veh, TRMT61B / RFU, FUBP3 / Fold change vs veh, FUBP3 / RFU, TP53 / Fold change vs veh, TP53 / RFU, TNKS2 / Fold change vs veh, TNKS2 / RFU, ZFP14 / Fold change vs veh, ZFP14 / RFU, ACTR2 / Fold change vs veh, ACTR2 / RFU, PPP3R1 / Fold change vs veh, PPP3R1 / RFU, PIK3R1 / Fold change vs veh, PIK3R1 / RFU, HNRNPA1 / Fold change vs veh, HNRNPA1 / RFU, RNF170 / Fold change vs veh, RNF170 / RFU, ZNF28 / Fold change vs veh, ZNF28 / RFU, RNGTT / Fold change vs veh, RNGTT / RFU, OGT / Fold change vs veh, OGT / RFU, BRD1 / Fold change vs veh, BRD1 / RFU, MARS / Fold change vs veh, MARS / RFU, ZNF655 / Fold change vs veh, ZNF655 / RFU, FAHD1 / Fold change vs veh, FAHD1 / RFU, BDP1 / Fold change vs veh, BDP1 / RFU, LRRCC1 / Fold change vs veh, LRRCC1 / RFU, ARID1A / Fold change vs veh, ARID1A / RFU, ZNF146 / Fold change vs veh, ZNF146 / RFU, ZNF330 / Fold change vs veh, ZNF330 / RFU, GPN3 / Fold change vs veh, GPN3 / RFU, C9orf123 / Fold change vs veh, C9orf123 / RFU, N4BP2L2 / Fold change vs veh, N4BP2L2 / RFU, ARFIP1 / Fold change vs veh, ARFIP1 / RFU, FAM179B / Fold change vs veh, FAM179B / RFU, BCL10 / Fold change vs veh, BCL10 / RFU, UHRF1BP1L / Fold change vs veh, UHRF1BP1L / RFU, BET1 / Fold change vs veh, BET1 / RFU, CNOT2 / Fold change vs veh, CNOT2 / RFU, ZNF268 / Fold change vs veh, ZNF268 / Fold change vs veh, ZNF507 / RFU, DGCR2 / Fold change vs veh, DGCR2 / RFU, WDSUB1 / Fold change vs veh, WDSUB1 / Fold change vs veh, HSP90B1 /// MIR3652 / RFU, ADSS / Fold change vs veh, ADSS / RFU, GK / Fold change vs veh, GK / RFU, ZNF148 / Fold change vs veh, ZNF148 / RFU, TAF9 / Fold change vs veh, TAF9 / RFU, SLC1A5 / Fold change vs veh, SLC1A5 / RFU, SLMO2 / Fold change vs veh, SLMO2 / RFU, ABCC4 / Fold change vs veh, ABCC4 / RFU, LOC101060439 /// RAP1B / Fold change vs veh, LOC101060439 /// RAP1B / RFU, RFX7 / Fold change vs veh, RFX7 / RFU, GTPBP10 / Fold change vs veh, GTPBP10 / RFU, CNEP1R1 / Fold change vs veh, CNEP1R1 / RFU, BIVM-ERCC5 /// ERCC5 / Fold change vs veh, BIVM-ERCC5 /// ERCC5 / RFU, ILF3 / Fold change vs veh, ILF3 / RFU 11762660_at / Fold change /veh 11762660_at / RFU VCAN (11757783_s_at) / Fold change /veh VCAN (11757783_s_at) / RFU DDX43 (11728927_at) / Fold change /veh DDX43 (11728927_at) / RFU KRT8 (11758188_x_at) / Fold change /veh KRT8 (11758188_x_at) / RFU NKD1 (11759106_at) / Fold change /veh NKD1 (11759106_at) / RFU SRD5A1 (11742802_a_at) / Fold change /veh SRD5A1 (11742802_a_at) / RFU TPSAB1 /// TPSB2 (11721975_s_at) / Fold change /veh TPSAB1 /// TPSB2 (11721975_s_at) / RFU GSTM3 (11746129_a_at) / Fold change /veh GSTM3 (11746129_a_at) / RFU IL23R (11737362_x_at) / Fold change /veh IL23R (11737362_x_at) / RFU TMEM51 (11727254_a_at) / Fold change /veh TMEM51 (11727254_a_at) / RFU PIWIL2 (11732686_x_at) / Fold change /veh PIWIL2 (11732686_x_at) / RFU ORM1 (11744905_x_at) / Fold change /veh ORM1 (11744905_x_at) / RFU CCDC152 (11743942_at) / Fold change /veh CCDC152 (11743942_at) / RFU ECM1 (11717891_a_at) / Fold change /veh ECM1 (11717891_a_at) / RFU IL23R (11748794_a_at) / Fold change /veh IL23R (11748794_a_at) / RFU TNFAIP8L3 (11732012_x_at) / Fold change /veh TNFAIP8L3 (11732012_x_at) / RFU MBOAT4 (11741988_at) / Fold change /veh MBOAT4 (11741988_at) / RFU 11764193_at / Fold change /veh 11764193_at / RFU TMEM53 (11763286_at) / Fold change /veh TMEM53 (11763286_at) / RFU MAGEB2 (11727129_at) / Fold change /veh MAGEB2 (11727129_at) / RFU TMEM200A (11744735_a_at) / Fold change /veh TMEM200A (11744735_a_at) / RFU CCDC152 (11751479_a_at) / Fold change /veh CCDC152 (11751479_a_at) / RFU FAM211A (11726209_a_at) / Fold change /veh FAM211A (11726209_a_at) / RFU RGS16 (11746705_a_at) / Fold change /veh RGS16 (11746705_a_at) / RFU VCAN (11755009_s_at) / Fold change /veh VCAN (11755009_s_at) / RFU RHOB (11743442_s_at) / Fold change /veh RHOB (11743442_s_at) / RFU RGS16 (11720943_a_at) / Fold change /veh RGS16 (11720943_a_at) / RFU RGS16 (11720944_at) / Fold change /veh RGS16 (11720944_at) / RFU, VPS4B / Fold change vs veh, VPS4B / RFU, CREB1 / Fold change vs veh, CREB1 / RFU, DNAJC13 / Fold change vs veh, DNAJC13 / RFU, GNAQ / Fold change vs veh, GNAQ / RFU, CDK5R1 / Fold change vs veh, CDK5R1 / RFU, ZRANB3 / Fold change vs veh, ZRANB3 / RFU, CUL4A / Fold change vs veh, CUL4A / RFU, CCNY / Fold change vs veh, CCNY / RFU, UFL1 / Fold change vs veh, UFL1 / RFU, COG3 / Fold change vs veh, COG3 / RFU, DIAPH2 / Fold change vs veh, DIAPH2 / RFU, SKA2 / Fold change vs veh, SKA2 / RFU, AFF3 / Fold change vs veh, AFF3 / RFU, LMF1 / Fold change vs veh, LMF1 / RFU, IPO11 / Fold change vs veh, IPO11 / RFU, DFFB / Fold change vs veh, DFFB / RFU, FOXP1 / Fold change vs veh, FOXP1 / RFU, CARD8 / Fold change vs veh, CARD8 / RFU, STRN3 / Fold change vs veh, STRN3 / RFU, ADK / Fold change vs veh, ADK / RFU, RASSF2 / Fold change vs veh, RASSF2 / RFU, WIPF1 / Fold change vs veh, WIPF1 / RFU, LARP1B / Fold change vs veh, LARP1B / RFU, RASA1 / Fold change vs veh, RASA1 / RFU, RB1 / Fold change vs veh, RB1 / RFU, PPFIA1 / Fold change vs veh, PPFIA1 / RFU, MAT2A / Fold change vs veh, MAT2A / RFU, CCT5 / Fold change vs veh, CCT5 / RFU, WDR92 / Fold change vs veh, WDR92 / RFU, CUX1 / Fold change vs veh, CUX1 / RFU, TTC7A / Fold change vs veh, TTC7A / RFU, TMEM135 / Fold change vs veh, TMEM135 / RFU, DEPTOR / Fold change vs veh, DEPTOR / RFU, CPM / Fold change vs veh, CPM / RFU, DNAJB6 / Fold change vs veh, DNAJB6 / RFU, CACNA2D3 / Fold change vs veh, CACNA2D3 / RFU, DTX4 / Fold change vs veh, DTX4 / RFU, TFCP2 / Fold change vs veh, TFCP2 / RFU, GMCL1 /// GMCL1P1 / Fold change vs veh, GMCL1 /// GMCL1P1 / RFU, AEBP2 / Fold change vs veh, AEBP2 / RFU, SNHG1 /// SNORD22 /// SNORD25 /// SNORD26 /// SNORD27 /// SNORD28 /// SNORD29 /// SNORD31 / Fold change vs veh, SNHG1 /// SNORD22 /// SNORD25 /// SNORD26 /// SNORD27 /// SNORD28 /// SNORD29 /// SNORD31 / Fold change (Aza/veh), C12orf56 (ProbeSet 11735607_a_at) / Fold change (ACY-1035/veh), C12orf56 (ProbeSet 11735607_a_at) / Fold change (Aza/veh), FGFR1OP (ProbeSet 11751329_s_at) / Fold change (ACY-1035/veh), FGFR1OP (ProbeSet 11751329_s_at) / Fold change (Aza/veh), VPS36 (ProbeSet 11739960_a_at) / Fold change (ACY-1035/veh), VPS36 (ProbeSet 11739960_a_at) / RFU SYPL1 (11715823_x_at) / Fold change /veh SYPL1 (11715823_x_at) / RFU IGFBP7 (11715501_s_at) / Fold change /veh IGFBP7 (11715501_s_at) / RFU REEP3 (11722064_at) / Fold change /veh REEP3 (11722064_at) / RFU IGLL1 (11728026_x_at) / Fold change /veh IGLL1 (11728026_x_at): dose or concentration left out as unconfirmed
Details: MV-4-11 cells, 48 hours

SMILES: Nc1ncn([C@@H]2O[C@H](CO)[C@@H](O)[C@H]2O)c(=O)n1 [azacitidine]
- Fold change /veh VPS37D (11726825_at): 1.12
